# Entries after “also recorded” stand apart in the source; their conditions may differ.
# What was measured:
# erg6Δ ira2Δ cells [1] = assay: 96-well plate growth assay, erg6Δ ira2Δ strain; type: cell-based, Saccharomyces cerevisiae; details: for sensitivity of growth to compound: erg6Δ ira2Δ, 96-well plate growth assay, optical density, 30° C.
# cells lacking IRA2 = assay: growth of cells lacking IRA2, 96-well plates; type: cell-based, Saccharomyces cerevisiae
# erg6Δ cells = assay: 96-well plate growth assay, erg6Δ strain; type: cell-based, Saccharomyces cerevisiae
# erg6Δ iralΔ ira2Δ = assay: 96-well plate growth assay, erg6Δ ira1Δ ira2Δ strain; details: genotype erg6Δ iralΔ ira2Δ; OD 595 nm after 24 hours
# Method: Wild type yeast cells (MLY41 a strain derived from the Σ11278b background) and cells having the genotypes shown in Table 2 are grown overnight in SC media, 75 μL of culture at a starting optical density of 0.1 are added to a 96 well plate containing 75 μL of SC media with twice the desired final concentration of the compound of Formula I in 1% DMSO. Plates are incubated in a humidified 30° C. chamber and scanned on an optical density plate reader at 595 nm after 24 hours. […] Strains are treated as described above, and the growth of the culture is monitored for 24 hours at the indicated intervals. The points represent the mean of three wells per condition.
# erg6Δ ira2Δ cells [2] = assay: growth on solid agar media, serial dilutions spotted; details: SC plates with compound, three days at 30° C.
# MPNST cell lines = assay: growth of MPNST cell lines; type: cell-based, human
structure (smiles),measurement,setting,value
N=C(N)SCc1cn(-c2ccccc2)nc1-c1cccc(Br)c1 [Formula II],sensitivity of growth to compound,erg6Δ ira2Δ cells [1],differential sensitivity
same,Effect of Compound of Formula II,"erg6Δ ira2Δ cells [1]; genotype ira2Δ, erg6Δ, OD 595 nm after 24 hours",Inhibition at 10 uM and 50 uM
same,growth of cells lacking IRA2,cells lacking IRA2; FIG. 7,Growth inhibition
same,Effect of Compound of Formula II,"erg6Δ cells; genotype erg6Δ, OD 595 nm after 24 hours",Inhibition at 50 uM
same,Effect of Compound of Formula II (inhibition at concentration),erg6Δ iralΔ ira2Δ,Inhibition at less than 10 uM
COc1cccc(-c2cc(=O)c3ccccc3o2)c1N [PD98059],sensitivity of growth on agar media,erg6Δ ira2Δ cells [2],increased sensitivity
same,growth in MPNST lines,MPNST cell lines,inhibiting growth
same,selective suppression of growth of NF1-/- MPNST cell line relative to NF1+/+ MPNST line,MPNST cell lines; NF1−1− MPNST cell line relative to NF1+/+ MPNST line,selectively suppress growth
same,sensitivity of cells lacking ERG6 and IRA2,erg6Δ ira2Δ cells [1]; 50 μM PD98059,sensitive
same,sensitivity of cells lacking ERG6 and IRA2,"erg6Δ ira2Δ cells [1]; 25 μL (so in the source) PD98059, 24 hours",less sensitive
same,sensitivity of growth to compound,erg6Δ ira2Δ cells [1],sensitized; also recorded: increased sensitivity
same,sensitivity of growth to compound,"erg6Δ cells; erg6Δ alone, 96-well plate growth assay",not sensitive
CC[C@@]1(O)C(=O)OCc2c1cc1n(c2=O)Cc2cc3ccccc3nc2-1 [camptothecin],sensitivity of growth on agar media,erg6Δ ira2Δ cells [2],differential sensitivity; also recorded: sensitizes
CO[C@H]1C[C@@H]2CC[C@@H](C)[C@@](O)(O2)C(=O)C(=O)N2CCCC[C@H]2C(=O)O[C@H]([C@H](C)C[C@@H]2CC[C@@H](O)[C@H](OC)C2)CC(=O)[C@H](C)/C=C(\C)[C@@H](O)[C@@H](OC)C(=O)[C@H](C)C[C@H](C)/C=C/C=C/C=C/1C [rapamycin],growth inhibition of cells lacking IRA2 by rapamycin alone,"cells lacking IRA2; rapamycin dose used in combination, 24 hours",does not inhibit
